Data as given in patent US20250282820A1, “PEPTIDE COMPLEX HAVING TRKB BINDING ACTIVITY” (PEPTIDREAM INC, priority 2022, published 2025).
*1 amine or outer side, *2 acyl side, *3 side chain or, on linkers, in order; H or OH if unused. Where a SMILES comes first, the peptide text is derived from it. Bridges are numbered along the chain shown (N, C = ends). Roman numbers before positions name the chains, in order. [ ]: non-standard residue; d: D form. CO(CH2)2(OCH2CH2)17CO = O=C(CCOCCOCCOCCOCCOCCOCCOCCOCCOCCOCCOCCOCCOCCOCCOCCOCCOCCC(=O)[*:2])[*:1]; PEG8 = NCCOCCOCCOCCOCCOCCOCCOCCOCCC(=O)O; 3Pal = N[C@@H](Cc1cccnc1)C(=O)O; X2 = O=C(CCOCCC(=O)[*:2])[*:1]

Legend:
Type in all cases: cell-based
[1] = molecular target: T1, TrkB (CellSensor TrkB-NFAT-bla CHO-K1 Cell) (Homo sapiens, UniProt Q16620); experiment: pERK1/2 AlphaLISA assay (phosphorylation of ERK) for TrkB agonist activity; details: class = peptide concentration giving 50% or more activity; BDNF maximum signal = 100%, no stimulation = 0%; 15 minutes of stimulation
T1 construct: host or cells: CHO-K1 (CellSensor TrkB-NFAT-bla CHO-K1)
T1 sequence (Q16620 32-822): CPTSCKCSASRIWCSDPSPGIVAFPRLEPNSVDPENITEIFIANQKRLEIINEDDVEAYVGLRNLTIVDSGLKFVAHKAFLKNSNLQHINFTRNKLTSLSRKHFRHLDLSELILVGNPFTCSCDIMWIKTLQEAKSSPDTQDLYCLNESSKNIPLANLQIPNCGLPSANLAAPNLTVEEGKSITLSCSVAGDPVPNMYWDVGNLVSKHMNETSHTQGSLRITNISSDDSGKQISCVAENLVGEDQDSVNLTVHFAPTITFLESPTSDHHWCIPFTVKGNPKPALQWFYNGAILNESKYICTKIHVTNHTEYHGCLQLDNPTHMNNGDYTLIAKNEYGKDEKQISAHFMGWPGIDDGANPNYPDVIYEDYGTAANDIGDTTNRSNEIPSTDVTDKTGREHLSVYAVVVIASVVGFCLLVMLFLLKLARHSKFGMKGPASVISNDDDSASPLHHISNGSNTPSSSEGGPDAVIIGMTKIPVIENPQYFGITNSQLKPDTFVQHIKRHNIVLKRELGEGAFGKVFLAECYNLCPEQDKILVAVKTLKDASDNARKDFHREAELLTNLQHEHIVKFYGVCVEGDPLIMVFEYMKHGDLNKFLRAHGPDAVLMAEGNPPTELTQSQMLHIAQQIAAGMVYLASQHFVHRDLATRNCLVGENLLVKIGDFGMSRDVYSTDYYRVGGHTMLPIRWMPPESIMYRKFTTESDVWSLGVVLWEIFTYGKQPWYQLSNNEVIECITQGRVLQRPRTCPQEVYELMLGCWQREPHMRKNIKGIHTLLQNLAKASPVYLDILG
Procedure: To evaluate the TrkB activation potency of the TrkB agonist peptide of the present invention, the phosphorylation of ERK was examined. CellSensor (registered trademark) TrkB-NFAT-bla CHO-K1 Cell (Invitrogen) was cultured in DMEM, high glucose, GlutaMAX (registered trademark) Supplement, and pyruvate (Thermo), comprising 10% FBS (Thermo) and 1× Non-essential amino acids (Thermo), 25 mM HEPES (Thermo), 50 ug/mL Gentamicin, 5 ug/mL Blasticidin (Thermo), and 200 ug/mL Zeocin (Thermo). After the cells were detached using Accutase (Innovative Cell Technologies), they were seeded into a 96-well plate for adherent cultures at 12,500 cells per well and cultured overnight. The next day, for starvation, the culture solution above was replaced with a nutrient starvation medium comprising 0.1% BSA (Sigma), wherein FBS, Blasticidin, and Zeocin were removed from the culture medium, and culturing was performed for 4 hours. Thereafter, Recombinant Human BDNF Protein (R&D Systems) or a peptide was added, and after 15 minutes of stimulation, cells were lysed in the Lysis Buffer provided with the AlphaLISA SureFire Ultra p-Erk1/2 (Thr202/Tyr204) assay kit (PerkinElmer). The assay was performed according to the kit protocol. The signals were detected using a SpectraMax Paradigm Multi-Mode Microplate Reader (Molecular Devices). The obtained signals were analyzed with GraphPad Prism, and the activity (%) was calculated with the maximum value of the signals induced by BDNF as 100% and a signal with no stimulation as 0%. The peptide with 50% or more activity when 1 nM of the peptide was added was evaluated as A, and the peptide with 50% or more activity when 10 nM of the peptide was added was evaluated as B.
The BDNF was evaluated at 8 points (0.0006 nM to 10 nM) from 10 nM using 4-fold dilutions.
(§1) For dimer structures Nos. 1 to 3, the peptide was evaluated at 1 nM, 10 nM, and 100 nM, and, for other dimer structure numbers, the peptide was evaluated at 0.1 nM, 1 nM, and 10 nM. When creating the concentration dependence curve, the BDNF and the peptides were evaluated at 8 points (0.006 nM to 100 nM) from 100 nM using 4-fold dilutions.

[2] = molecular target: T1, TrkB (CellSensor TrkB-NFAT-bla CHO-K1 Cell); experiment: NFAT transcriptional reporter assay for TrkB agonist activity; details: class = peptide concentration giving 50% or more activity; BDNF maximum signal = 100%, no stimulation = 0%; 5 hours culture
Procedure: To evaluate the TrkB activation potency of the TrkB agonist peptide of the present invention, transcriptional activity was examined using transcriptional reporters. The CellSensor (registered trademark) TrkB-NFAT-bla CHO-K1 Cell (Invitrogen) used in the AlphaLISA assay was cultured in the medium above. After the cells were detached using Accutase (Innovative Cell Technologies), the cells were suspended in an assay medium, wherein Blasticidin and Zeocin were removed, then seeded into a 96-well plate for adherent cultures at 12,500 cells per well and cultured overnight. Then, BDNF or a peptide was added thereto, and the cells were further cultured in a CO2 incubator for 5 hours. After the 96-well plate was removed from the incubator and brought to room temperature, a detection reagent (LiveBLAzer (registered trademark)-FRET B/G (CCF4-AM) Substrate Mixture) was added while protected from the light, and the 96-well plate was incubated while protected from the light in a moisture box with a lid for 2 hours. For signal detection, a EnVision 2104 Multilabel Plate Reader (PerkinElmer) was used, and the ratio of fluorescence emission value (460 nm/535 nm) was calculated. The obtained numerical values were analyzed with GraphPad Prism, and the activity (%) was calculated with the maximum value of the signals induced by BDNF as 100% and a signal with no stimulation as 0%. The peptide with 50% or more activity when 1 nM of the peptide was added was evaluated as A, the peptide with 50% or more activity when 10 nM of the peptide was added was evaluated as B, and the peptide with 50% or more activity when 100 nM of the peptide was added was evaluated as C. Those that were not evaluated were listed as not tested.
The BDNF was evaluated at 7 points (0.0024 nM to 10 nM) from 10 nM using 4-fold dilutions.
as §1, with “at […]” for “at 8”, “[…]” for “from 100”

[3] = molecular target: TrkB (Homo sapiens, UniProt Q16620); experiment: PathHunter eXpress TrkB Functional Assay (phosphorylation of TrkB); details: maximum signal induced by BDNF = 100%; stimulation for 3 hours
Chain of TrkB (Q16620 32-822): as above
Procedure, shortened: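 PathHunter TrkB cells, cultured 48 h, were stimulated 3 h with peptide or BDNF, then detection reagent added for 60 min at room temperature; luminescence read. Activity (%) scaled from unstimulated (0%) to maximal BDNF signal (100%); peptides tested over 0.006104-100 nM, 0.032-100 nM or 0.01-10 nM ranges.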

| SMILES | pERK (aLISA) Assay Results [1] | NFAT Assay Results [2] | Emax [3] [%] |
| --- | --- | --- | --- |
| CC(C)[C@@H]1NC(=O)[C@H](Cc2cccnc2)NC(=O)[C@H](CCC(=O)O)NC(=O)[C@H](CO)NC(=O)[C@H](Cc2ccc(O)cc2)NC(=O)[C@H]([C@@H](C)O)NC(=O)[C@@H]2CCCN2C(=O)[C@H](Cc2c[nH]c3ccccc23)NC(=O)[C@H](Cc2cccnc2)NC(=O)[C@H](Cc2ccc(O)cc2)NC(=O)[C@@H]2CCCN2C(=O)[C@H](CO)NC(=O)[C@H](Cc2ccccc2)NC(=O)CSC[C@@H](C(=O)NCC(=O)NCCOCCOCCOCCOCCOCCOCCOCCOCCC(=O)NCCCC[C@H](NC(=O)CCOCCOCCOCCOCCOCCOCCOCCOCCNC(=O)CNC(=O)[C@@H]2CSCC(=O)N[C@@H](Cc3ccccc3)C(=O)N[C@@H](CO)C(=O)N3CCC[C@H]3C(=O)N[C@@H](Cc3ccc(O)cc3)C(=O)N[C@@H](Cc3cccnc3)C(=O)N[C@@H](Cc3c[nH]c4ccccc34)C(=O)N3CCC[C@H]3C(=O)N[C@@H]([C@@H](C)O)C(=O)N[C@@H](Cc3ccc(O)cc3)C(=O)N[C@@H](CO)C(=O)N[C@@H](CCC(=O)O)C(=O)N[C@@H](Cc3cccnc3)C(=O)N[C@@H](C(C)C)C(=O)N[C@@H](CCC(=O)O)C(=O)N2)C(N)=O)NC(=O)[C@H](CCC(=O)O)NC1=O [compound 15] (I: {CH2CO}-FSPY[3Pal]WPTYSE[3Pal]VECG[PEG8]K-NH2 / II: {CH2CO}-FSPY[3Pal]WPTYSE[3Pal]VECG[PEG8]; amide I:18-II:C (inferred); thioether I:N-I:15, II:N-II:15 (inferred)) | A (The peptide with 50% or more activity when 1 nM of the peptide was added was evaluated as A) | A (The peptide with 50% or more activity when 1 nM of the peptide was added was evaluated as A) | 104 |
| CC(C)[C@@H]1NC(=O)[C@H](Cc2cccnc2)NC(=O)[C@H](CCC(=O)O)NC(=O)[C@H](CO)NC(=O)[C@H](Cc2ccc(O)cc2)NC(=O)[C@H]([C@@H](C)O)NC(=O)[C@@H]2CCCN2C(=O)[C@H](Cc2c[nH]c3ccccc23)NC(=O)[C@H](Cc2cccnc2)NC(=O)[C@H](Cc2ccc(O)cc2)NC(=O)[C@@H]2CCCN2C(=O)[C@H](CO)NC(=O)[C@H](Cc2ccccc2)NC(=O)CSC[C@@H](C(=O)NCC(=O)NCCOCCOCCOCCOCCOCCOCCOCCOCCC(=O)N[C@@H](CCCCNC(=O)CCOCCC(=O)NCCCC[C@H](NC(=O)CCOCCOCCOCCOCCOCCOCCOCCOCCNC(=O)CNC(=O)[C@@H]2CSCC(=O)N[C@@H](Cc3ccccc3)C(=O)N[C@@H](CO)C(=O)N3CCC[C@H]3C(=O)N[C@@H](Cc3ccc(O)cc3)C(=O)N[C@@H](Cc3cccnc3)C(=O)N[C@@H](Cc3c[nH]c4ccccc34)C(=O)N3CCC[C@H]3C(=O)N[C@@H]([C@@H](C)O)C(=O)N[C@@H](Cc3ccc(O)cc3)C(=O)N[C@@H](CO)C(=O)N[C@@H](CCC(=O)O)C(=O)N[C@@H](Cc3cccnc3)C(=O)N[C@@H](C(C)C)C(=O)N[C@@H](CCC(=O)O)C(=O)N2)C(N)=O)C(N)=O)NC(=O)[C@H](CCC(=O)O)NC1=O [compound 33] (I: {CH2CO}-FSPY[3Pal]WPTYSE[3Pal]VECG[PEG8]K-NH2 / II: {CH2CO}-FSPY[3Pal]WPTYSE[3Pal]VECG[PEG8]K-NH2; linker I:18-II:18 via X2; thioether I:N-I:15, II:N-II:15) | A (The peptide with 50% or more activity when 1 nM of the peptide was added was evaluated as A) | A (The peptide with 50% or more activity when 1 nM of the peptide was added was evaluated as A) | 96 |
| CC(C)[C@@H]1NC(=O)[C@H](Cc2cccnc2)NC(=O)[C@H](CCC(=O)O)NC(=O)[C@H](CO)NC(=O)[C@H](Cc2ccc(O)cc2)NC(=O)[C@H]([C@@H](C)O)NC(=O)[C@@H]2CCCN2C(=O)[C@H](Cc2c[nH]c3ccccc23)NC(=O)[C@H](Cc2cccnc2)NC(=O)[C@H](Cc2ccc(O)cc2)NC(=O)[C@@H]2CCCN2C(=O)[C@H](CO)NC(=O)[C@H](Cc2ccccc2)NC(=O)CSC[C@@H](C(=O)NCC(=O)N[C@@H](CCCCNC(=O)CCOCCOCCOCCOCCOCCOCCOCCOCCOCCOCCOCCOCCOCCOCCOCCOCCOCCC(=O)NCCCC[C@H](NC(=O)CNC(=O)[C@@H]2CSCC(=O)N[C@@H](Cc3ccccc3)C(=O)N[C@@H](CO)C(=O)N3CCC[C@H]3C(=O)N[C@@H](Cc3ccc(O)cc3)C(=O)N[C@@H](Cc3cccnc3)C(=O)N[C@@H](Cc3c[nH]c4ccccc34)C(=O)N3CCC[C@H]3C(=O)N[C@@H]([C@@H](C)O)C(=O)N[C@@H](Cc3ccc(O)cc3)C(=O)N[C@@H](CO)C(=O)N[C@@H](CCC(=O)O)C(=O)N[C@@H](Cc3cccnc3)C(=O)N[C@@H](C(C)C)C(=O)N[C@@H](CCC(=O)O)C(=O)N2)C(N)=O)C(N)=O)NC(=O)[C@H](CCC(=O)O)NC1=O [compound 49] (I: {CH2CO}-FSPY[3Pal]WPTYSE[3Pal]VECGK-NH2 / II: {CH2CO}-FSPY[3Pal]WPTYSE[3Pal]VECGK-NH2; linker I:17-II:17 via CO(CH2)2(OCH2CH2)17CO; thioether I:N-I:15, II:N-II:15) | A (The peptide with 50% or more activity when 1 nM of the peptide was added was evaluated as A) | A (The peptide with 50% or more activity when 1 nM of the peptide was added was evaluated as A) | 107 |
| CC(C)C[C@@H]1NC(=O)[C@H](Cc2ccccc2)NC(=O)CSC[C@@H](C(=O)NCC(=O)NCCOCCOCCOCCOCCOCCOCCOCCOCCC(=O)NCCCC[C@H](NC(=O)CCOCCOCCOCCOCCOCCOCCOCCOCCNC(=O)CNC(=O)[C@@H]2CSCC(=O)N[C@@H](Cc3ccccc3)C(=O)N[C@@H](CC(C)C)C(=O)N3CCC[C@H]3C(=O)N[C@@H](Cc3ccc(O)cc3)C(=O)N[C@@H](Cc3cccnc3)C(=O)N[C@@H](Cc3c[nH]c4ccccc34)C(=O)N3CCC[C@H]3C(=O)N[C@@H]([C@@H](C)O)C(=O)N[C@@H](Cc3ccc(O)cc3)C(=O)N[C@@H](CO)C(=O)N[C@@H](CCC(=O)O)C(=O)N[C@@H](Cc3cccnc3)C(=O)N[C@@H](C(C)C)C(=O)N[C@@H](CCC(=O)O)C(=O)N2)C(N)=O)NC(=O)[C@H](CCC(=O)O)NC(=O)[C@H](C(C)C)NC(=O)[C@H](Cc2cccnc2)NC(=O)[C@H](CCC(=O)O)NC(=O)[C@H](CO)NC(=O)[C@H](Cc2ccc(O)cc2)NC(=O)[C@H]([C@@H](C)O)NC(=O)[C@@H]2CCCN2C(=O)[C@H](Cc2c[nH]c3ccccc23)NC(=O)[C@H](Cc2cccnc2)NC(=O)[C@H](Cc2ccc(O)cc2)NC(=O)[C@@H]2CCCN2C1=O [compound 14] (I: {CH2CO}-FLPY[3Pal]WPTYSE[3Pal]VECG[PEG8]K-NH2 / II: {CH2CO}-FLPY[3Pal]WPTYSE[3Pal]VECG[PEG8]; amide I:18-II:C (inferred); thioether I:N-I:15, II:N-II:15 (inferred)) | A (The peptide with 50% or more activity when 1 nM of the peptide was added was evaluated as A) | A (The peptide with 50% or more activity when 1 nM of the peptide was added was evaluated as A) | 86 |
